Data: patent US20210353593A1 (Chinook Therapeutics, Inc., priority 2019, published 2021)
“Also recorded” adds a separate entry of the source. Where two headings read alike, the source gives them in different places.

Columns and labels:
g-ddY mice = experiment: Albuminuria (UACR) in g-ddY mouse model of IgA nephropathy; type: in vivo
Excerpt: The grouped ddY (g-ddY) mouse is a spontaneous model of early-onset IgA nephropathy characterized by IgA immune complex deposition in the mesangium of the kidney, leading to significant proteinuria, glomerular hypercellularity, mesangioproliferative glomerular lesions, glomerular sclerosis and reduced kidney function, all hallmarks of human IgA nephropathy (J Am Soc Nephrol 23: 1364-1374, 2012). Consistent with human IgA nephropathy, the mesangial IgA deposits in the g-ddY mouse are also accompanied by deposition of IgG and complement C3.

[1] = test system: kidney tissue of g-ddY mice
[2] = 10 mg/kg/day, approximately 5 days
[3] = 10 mg/kg/day vs untreated control

Question: For `CCCCN(CCCC)C(=O)CN1C[C@H](c2ccc3c(c2)OCO3)[C@@H](C(=O)O)[C@@H]1c1ccc(OC)cc1` [Atrasentan, (2R,3R,4S)-4-(1,3-benzodioxol-5-yl)-1-[2-(dibutylamino)-2-oxoethyl]-2-(4-methoxyphenyl)pyrrolidine-3-carboxylic acid], which “mice with reduced albuminuria” value (g-ddY mice; 10 mg/kg/day group) is on record?
Answer: ⅔

Question: What about the “reduction of UACR from baseline” value (g-ddY mice; 10 mg/kg/day in drinking water, approximately 5 days) of the same molecule?
Answer: 28±44%

Question: What about the “albuminuria vs baseline (paired t-test)” value (g-ddY mice; [2]) of the same molecule?
Answer: not significantly changed from baseline

Question: And the “effect on UACR compared to control group (un-paired t-test)” value (“effect on UACR compared to control group” below) (g-ddY mice; [2])?
Answer: not significant

Question: What about the “reduction of UACR from baseline” value (g-ddY mice; 20 mg/kg/day in drinking water, approximately 5 days) of the same molecule?
Answer: 62±8%

Question: And the “effect on UACR compared to control group” value (g-ddY mice; 20 mg/kg/day, approximately 5 days, P=0.0498)?
Answer: statistically significant compared to the control group; also recorded: significantly reduced albuminuria

Question: And the “albuminuria vs baseline (paired t-test)” value (g-ddY mice; 20 mg/kg/day, approximately 5 days, P=0.0593)?
Answer: reduced from baseline to a similar extent

Question: What about the “reduction of UACR from baseline” value (g-ddY mice; 30 mg/kg/day in drinking water, approximately 5 days) of the same molecule?
Answer: 63±6%

Question: What about the “albuminuria vs baseline (paired t-test)” value (g-ddY mice; 30 mg/kg/day, approximately 5 days) of the same molecule?
Answer: significantly (P=0.0002, paired two-sided t-test) reduced albuminuria from baseline

Question: What about the “effect on UACR compared to control group” value (g-ddY mice; 30 mg/kg/day, approximately 5 days, P=0.029) of the same molecule?
Answer: statistically significant compared to the control group; also recorded: significantly reduced albuminuria

Question: And the “magnitude of albuminuria lowering (reduction from baseline)” value (g-ddY mice; 20 and 30 mg/kg/day, approximately 5 days)?
Answer: > 60%

Question: And the “number of downregulated genes” value ([1]; 10 mg/kg/day versus control)?
Answer: 15 genes

Question: And the “number of upregulated genes” value ([1]; 10 mg/kg/day versus control)?
Answer: 25 genes

Question: And the “Acnat2 logFC” value ([1]; 10 mg/kg/day vs control)?
Answer: 0.9174

Question: And the “Apoc1 logFC” value ([1]; 10 mg/kg/day vs control)?
Answer: −1.929

Question: And the “Arnt1 logFC” value ([1]; 10 mg/kg/day vs control)?
Answer: 1.039

Question: What about the “Asl logFC” value ([1]; 10 mg/kg/day vs control) of the same molecule?
Answer: 0.707

Question: And the “Bckdha logFC” value ([1]; 10 mg/kg/day vs control)?
Answer: 0.5492

Question: And the “Bmp6 logFC” value ([1]; 10 mg/kg/day vs control)?
Answer: 0.7141

Question: And the “Ccn1 logFC” value ([1]; 10 mg/kg/day vs control)?
Answer: −1.087

Question: What about the “Ccn2 logFC” value ([1]; 10 mg/kg/day vs control) of the same molecule?
Answer: −0.5379

Question: And the “Cish logFC” value ([1]; 10 mg/kg/day vs control)?
Answer: −1.301

Question: And the “Cryl1 logFC” value ([1]; 10 mg/kg/day vs control)?
Answer: 0.5206

Question: What about the “Dbp logFC” value ([1]; 10 mg/kg/day vs control) of the same molecule?
Answer: −1.205

Question: And the “Dpep1 logFC” value ([1]; 10 mg/kg/day vs control)?
Answer: 0.6476

Question: What about the “Ethe1 logFC” value ([1]; 10 mg/kg/day vs control) of the same molecule?
Answer: 0.941

Question: And the “Filipl1 logFC” value ([1]; 10 mg/kg/day vs control)?
Answer: −0.8186

Question: And the “Frmd4b logFC” value ([1]; 10 mg/kg/day vs control)?
Answer: 0.6863

Question: What about the “Gapdh logFC” value ([1]; 10 mg/kg/day vs control) of the same molecule?
Answer: 0.6257

Question: What about the “Gem logFC” value ([1]; 10 mg/kg/day vs control) of the same molecule?
Answer: −1.508

Question: What about the “Gm15910 logFC” value ([1]; 10 mg/kg/day vs control) of the same molecule?
Answer: −1.397

Question: What about the “Hacl1 logFC” value ([1]; 10 mg/kg/day vs control) of the same molecule?
Answer: 0.6805

Question: And the “Igf1 logFC” value ([1]; 10 mg/kg/day vs control)?
Answer: −0.8723

Question: What about the “Mapt logFC” value ([1]; 10 mg/kg/day vs control) of the same molecule?
Answer: 0.7035

Question: And the “Mef2c logFC” value ([1]; 10 mg/kg/day vs control)?
Answer: −0.6217

Question: What about the “Mmd logFC” value ([1]; 10 mg/kg/day vs control) of the same molecule?
Answer: −1.012

Question: And the “Mnt logFC” value ([1]; 10 mg/kg/day vs control)?
Answer: 0.6669

Question: And the “Ndrg1 logFC” value ([1]; 10 mg/kg/day vs control)?
Answer: 0.9887

Question: What about the “Npas2 logFC” value ([1]; 10 mg/kg/day vs control) of the same molecule?
Answer: 1.415

Question: What about the “Nr4a1 logFC” value ([1]; 10 mg/kg/day vs control) of the same molecule?
Answer: −1.525

Question: What about the “Pde3b logFC” value ([1]; 10 mg/kg/day vs control) of the same molecule?
Answer: −0.6611

Question: What about the “Pdzd3 logFC” value ([1]; 10 mg/kg/day vs control) of the same molecule?
Answer: 0.7268

Question: What about the “Pdzk1ip1 logFC” value ([1]; 10 mg/kg/day vs control) of the same molecule?
Answer: 0.5308

Question: And the “Pfkffb3 logFC” value ([1]; 10 mg/kg/day vs control)?
Answer: −1.166

Question: What about the “S100g logFC” value ([1]; 10 mg/kg/day vs control) of the same molecule?
Answer: 0.7546

Question: And the “Sirt3 logFC” value ([1]; 10 mg/kg/day vs control)?
Answer: 0.7376

Question: And the “Slc5a2 logFC” value ([1]; 10 mg/kg/day vs control)?
Answer: 0.7478

Question: What about the “Slc6a19 logFC” value ([1]; 10 mg/kg/day vs control) of the same molecule?
Answer: 0.8567

Question: What about the “Slc7a9 logFC” value ([1]; 10 mg/kg/day vs control) of the same molecule?
Answer: 0.5456

Question: And the “Slc16a1 logFC” value ([1]; 10 mg/kg/day vs control)?
Answer: 0.9808

Question: And the “Slc19a1 logFC” value ([1]; 10 mg/kg/day vs control)?
Answer: 0.6451

Question: What about the “Slc34a3 logFC” value ([1]; 10 mg/kg/day vs control) of the same molecule?
Answer: 0.8923

Question: What about the “Zeb2 logFC” value ([1]; 10 mg/kg/day vs control) of the same molecule?
Answer: −0.5638

Question: And the “ET1 gene signature genes downregulated” value [1, 3]?
Answer: Grk5, Mllt3, Klf2, Pparg, Hgf, Edn1, Fos, Ptgs2, and IL-1b

Question: What about the “ET1 gene signature genes upregulated” value [1, 3] of the same molecule?
Answer: Ccnd1, Ppara, Agt, Map2k2 and Hoxa9

Question: What about the “number of downregulated genes” value ([1]; 20 mg/kg/day versus control) of the same molecule?
Answer: 281 genes

Question: And the “number of upregulated genes” value ([1]; 20 mg/kg/day versus control)?
Answer: 214 genes

Question: And the “1700101I11Rik logFC” value ([1]; 20 mg/kg/day vs control)?
Answer: 1.658

Question: What about the “A530016L24Rik logFC” value ([1]; 20 mg/kg/day vs control) of the same molecule?
Answer: −3.027

Question: And the “Abcd2 logFC” value ([1]; 20 mg/kg/day vs control)?
Answer: −2.686

Question: What about the “Adcy2 logFC” value ([1]; 20 mg/kg/day vs control) of the same molecule?
Answer: −2.484

Question: What about the “Ankef1 logFC” value ([1]; 20 mg/kg/day vs control) of the same molecule?
Answer: −3.382

Question: What about the “Apol6 logFC” value ([1]; 20 mg/kg/day vs control) of the same molecule?
Answer: −3.616

Question: And the “Aspdh logFC” value ([1]; 20 mg/kg/day vs control)?
Answer: 0.9646

Question: What about the “Bche logFC” value ([1]; 20 mg/kg/day vs control) of the same molecule?
Answer: −4.062

Question: And the “C5ar2 logFC” value ([1]; 20 mg/kg/day vs control)?
Answer: −4.271

Question: And the “Cadm3 logFC” value ([1]; 20 mg/kg/day vs control)?
Answer: −2.439

Question: What about the “Ccl8 logFC” value ([1]; 20 mg/kg/day vs control) of the same molecule?
Answer: −2.999

Question: And the “Ccl20 logFC” value ([1]; 20 mg/kg/day vs control)?
Answer: −3.563

Question: And the “Clec2h logFC” value ([1]; 20 mg/kg/day vs control)?
Answer: 1.078

Question: And the “Cndp1 logFC” value ([1]; 20 mg/kg/day vs control)?
Answer: 0.9373

Question: And the “Dio2 logFC” value ([1]; 20 mg/kg/day vs control)?
Answer: −3.823

Question: And the “Dnase1 logFC” value ([1]; 20 mg/kg/day vs control)?
Answer: 1.086

Question: And the “Ebf2 logFC” value ([1]; 20 mg/kg/day vs control)?
Answer: −3.715

Question: What about the “Fcamr logFC” value ([1]; 20 mg/kg/day vs control) of the same molecule?
Answer: 1.182

Question: And the “Frs3 logFC” value ([1]; 20 mg/kg/day vs control)?
Answer: 1.094

Question: What about the “Ftcd logFC” value ([1]; 20 mg/kg/day vs control) of the same molecule?
Answer: 1.086

Question: And the “Glis1 logFC” value ([1]; 20 mg/kg/day vs control)?
Answer: 0.8776

Question: And the “Hao2 logFC” value ([1]; 20 mg/kg/day vs control)?
Answer: 0.9855

Question: And the “Hrg logFC” value ([1]; 20 mg/kg/day vs control)?
Answer: 4.888

Question: What about the “Igibp1 logFC” value ([1]; 20 mg/kg/day vs control) of the same molecule?
Answer: 2.82

Question: And the “Il1b logFC” value ([1]; 20 mg/kg/day vs control)?
Answer: −3.029
